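Each compound was tested at five concentrations against cells in 96-well plates for 48 hours. At the GI50, growth is halved.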 Calls of active or inactive are those of the source. Cut-off read from the data, not from the text of the source: active = GI50 up to about 1.1 µM and inactive = higher.
How the values were obtained:
Assay in all cases: inhibition of tumour cell growth, NCI panel, 48 h
NCI-H23 = tested on: NCI-H23
UACC-62 = tested on: UACC-62
CAKI-1 = tested on: CAKI-1
HOP-62 = tested on: HOP-62
U-251 = tested on: U-251
SF-268 = tested on: SF-268
OVCAR-4 = tested on: OVCAR-4
SK-MEL-5 = tested on: SK-MEL-5
SF-295 = tested on: SF-295
NCI-H226 = tested on: NCI-H226
COLO 205 = tested on: COLO 205
MDA-MB-435 = tested on: MDA-MB-435
K562 = tested on: K562
SN12C = tested on: SN12C
SK-MEL-2 = tested on: SK-MEL-2
ACHN = tested on: ACHN
RPMI-8226 = tested on: RPMI-8226
SF-539 = tested on: SF-539
HCT-116 = tested on: HCT-116
SW-620 = tested on: SW-620
SNB-19 = tested on: SNB-19
EKVX = tested on: EKVX
UACC-257 = tested on: UACC-257
HCT-15 = tested on: HCT-15
A498 = tested on: A498
M14 = tested on: M14
CCRF-CEM = tested on: CCRF-CEM
HL-60 = tested on: HL-60
MDA-N = tested on: MDA-N
OVCAR-5 = tested on: OVCAR-5
MDA-MB-231 = tested on: MDA-MB-231
SK-MEL-28 = tested on: SK-MEL-28
SNB-75 = tested on: SNB-75
HT-29 = tested on: HT-29
BT-549 = tested on: BT-549
OVCAR-8 = tested on: OVCAR-8
T47D = tested on: T47D
MCF7 = tested on: MCF7
NCI/ADR-RES = tested on: NCI/ADR-RES
OVCAR-3 = tested on: OVCAR-3
NCI-H522 = tested on: NCI-H522
PC-3 = tested on: PC-3
NCI-H460 = tested on: NCI-H460
786-0 = tested on: 786-0
SK-OV-3 = tested on: SK-OV-3
A549 = tested on: A549
RXF 393 = tested on: RXF 393
KM12 = tested on: KM12
LOX IMVI = tested on: LOX IMVI
TK-10 = tested on: TK-10
MOLT-4 = tested on: MOLT-4
IGROV-1 = tested on: IGROV-1
DU-145 = tested on: DU-145
HOP-92 = tested on: HOP-92
SR = tested on: SR
UO-31 = tested on: UO-31
Malme-3M = tested on: Malme-3M

CCOP(=O)(/C=C/n1ccc(=O)[nH]c1=O)OCC
GI50 (NCI-H23): > 100 µM (inactive) | GI50 (UACC-62): > 100 µM (inactive) | GI50 (CAKI-1): > 100 µM (inactive) | GI50 (HOP-62): > 100 µM (inactive) | GI50 (U-251): > 100 µM (inactive) | GI50 (SF-268): > 100 µM (inactive) | GI50 (OVCAR-4): > 100 µM (inactive) | GI50 (SK-MEL-5): > 100 µM (inactive) | GI50 (SF-295): > 100 µM (inactive) | GI50 (NCI-H226): > 100 µM (inactive) | GI50 (COLO 205): > 100 µM (inactive) | GI50 (MDA-MB-435): > 100 µM (inactive) | GI50 (K562): > 100 µM (inactive) | GI50 (SN12C): > 100 µM (inactive) | GI50 (SK-MEL-2): > 100 µM (inactive) | GI50 (ACHN): > 100 µM (inactive) | GI50 (RPMI-8226): > 100 µM (inactive) | GI50 (SF-539): > 100 µM (inactive) | GI50 (HCT-116): > 100 µM (inactive) | GI50 (SW-620): > 100 µM (inactive) | GI50 (SNB-19): > 100 µM (inactive) | GI50 (EKVX): > 100 µM (inactive) | GI50 (UACC-257): > 100 µM (inactive) | GI50 (HCT-15): > 100 µM | GI50 (A498): > 100 µM (inactive) | GI50 (M14): > 100 µM (inactive) | GI50 (CCRF-CEM): > 100 µM (inactive) | GI50 (HL-60): > 100 µM (inactive) | GI50 (MDA-N): > 100 µM (inactive) | GI50 (OVCAR-5): > 100 µM (inactive) | GI50 (MDA-MB-231): > 100 µM (inactive) | GI50 (SK-MEL-28): > 100 µM (inactive) | GI50 (SNB-75): > 100 µM (inactive) | GI50 (HT-29): > 100 µM (inactive) | GI50 (BT-549): > 100 µM (inactive) | GI50 (OVCAR-8): > 100 µM (inactive) | GI50 (T47D): > 100 µM (inactive) | GI50 (MCF7): > 100 µM (inactive) | GI50 (NCI/ADR-RES): > 100 µM (inactive) | GI50 (OVCAR-3): > 100 µM (inactive) | GI50 (NCI-H522): > 100 µM (inactive) | GI50 (PC-3): > 100 µM (inactive) | GI50 (NCI-H460): > 100 µM (inactive) | GI50 (786-0): > 100 µM (inactive) | GI50 (SK-OV-3): > 100 µM (inactive) | GI50 (A549): > 100 µM (inactive) | GI50 (RXF 393): > 100 µM (inactive) | GI50 (KM12): > 100 µM (inactive) | GI50 (LOX IMVI): > 100 µM (inactive) | GI50 (TK-10): > 100 µM (inactive) | GI50 (MOLT-4): > 100 µM (inactive) | GI50 (IGROV-1): > 100 µM (inactive) | GI50 (DU-145): > 100 µM (inactive)

Cc1c(N2C(=O)/C(=C/c3ccc(Cl)cc3)N=C2c2ccccc2)c(=O)n(-c2ccccc2)n1C
GI50 (NCI-H23): 26.2 µM (inactive) | GI50 (UACC-62): 21.1 µM (inactive) | GI50 (CAKI-1): 34.6 µM (inactive) | GI50 (HOP-62): 81.5 µM (inactive) | GI50 (U-251): 28.2 µM (inactive) | GI50 (SF-268): 30.8 µM (inactive) | GI50 (OVCAR-4): 33.9 µM (inactive) | GI50 (SK-MEL-5): 17.8 µM (inactive) | GI50 (SF-295): 35.7 µM (inactive) | GI50 (NCI-H226): 30.7 µM (inactive) | GI50 (COLO 205): 16 µM (inactive) | GI50 (MDA-MB-435): 19.5 µM (inactive) | GI50 (K562): 36.6 µM (inactive) | GI50 (SN12C): 34.1 µM (inactive) | GI50 (SK-MEL-2): 16.7 µM (inactive) | GI50 (HOP-92): 18.7 µM (inactive) | GI50 (SR): 30.5 µM (inactive) | GI50 (ACHN): 24.8 µM (inactive) | GI50 (RPMI-8226): 17.8 µM (inactive) | GI50 (SF-539): 28.5 µM (inactive) | GI50 (HCT-116): 32.3 µM (inactive) | GI50 (SW-620): 31.9 µM (inactive) | GI50 (EKVX): 19.7 µM (inactive) | GI50 (UACC-257): 18.3 µM (inactive) | GI50 (HCT-15): 3.2 µM | GI50 (M14): 36.8 µM (inactive) | GI50 (CCRF-CEM): 28.3 µM (inactive) | GI50 (HL-60): 27.4 µM (inactive) | GI50 (MDA-N): 24.8 µM (inactive) | GI50 (OVCAR-5): 49.2 µM (inactive) | GI50 (MDA-MB-231): 33.8 µM (inactive) | GI50 (SNB-75): 22.5 µM (inactive) | GI50 (HT-29): 26.6 µM (inactive) | GI50 (BT-549): 47.4 µM (inactive) | GI50 (OVCAR-8): 43.7 µM (inactive) | GI50 (T47D): 29.6 µM (inactive) | GI50 (MCF7): 29 µM (inactive) | GI50 (NCI/ADR-RES): 44.5 µM (inactive) | GI50 (OVCAR-3): 27.1 µM (inactive) | GI50 (NCI-H522): 19.8 µM (inactive) | GI50 (UO-31): 26.2 µM (inactive) | GI50 (PC-3): 33.9 µM (inactive) | GI50 (NCI-H460): 31 µM (inactive) | GI50 (786-0): 46.8 µM (inactive) | GI50 (SK-OV-3): 36.5 µM (inactive) | GI50 (A549): 28.8 µM (inactive) | GI50 (RXF 393): 22.3 µM (inactive) | GI50 (Malme-3M): 31.5 µM (inactive) | GI50 (KM12): 26.5 µM (inactive) | GI50 (LOX IMVI): 16.7 µM (inactive) | GI50 (TK-10): 20.5 µM (inactive) | GI50 (MOLT-4): 21.2 µM (inactive) | GI50 (IGROV-1): 29 µM (inactive) | GI50 (DU-145): 38.2 µM (inactive)

— ChEMBL document CHEMBL1201862, “PubChem BioAssay data set” (2004)
